Each structure is given as a SMILES string.

One data set addresses T1, human Tie2 (Homo sapiens, UniProt Q02763).
T1 construct: amino acids of the intracellular domain 776-1124; made in house; host or cells: baculovirus expression system (vector pFastBacGT)
As to the kind of experiment: Tie2 phosphorylation of PLC, FlashPlate radioactivity assay. The note with it: read-out: TIE2 % inhib at 10 μM. It is filed as biochemical. How it is done:
The coding sequence of human Tie2 corresponding to the amino acids of the intracellular domain 776-1124 was generated by PCR using the cDNA isolated from human placenta as model. This sequence was introduced into a baculovirus expression vector pFastBacGT in the form of a GST fusion protein.
The inhibitory effect of the molecules is determined in an assay of phosphorylation of PLC by Tie2 in the presence of GST-Tie2 purified to approximately 80% homogeneity. The substrate is composed of the SH2-SH3 fragments of PLC exprressed in the form of a GST fusion protein.
The kinase activity of Tie2 is measured in a 20 mM MOPS buffer, pH 7.2, containing 10 mM MgCl2, 10 mM MnCl2, 1 mM DTT and 10 mM of glycerophosphate. A reaction mixture composed of 70 μl of kinase buffer containing 100 ng of GST-Tie2 enzyme per well is placed in a FlashPlate 96-well plate kept on ice. 10 μl of the test molecule diluted in DMSO at a maximum concentration of 10% are then added. For a given concentration, each measurement is carried out in quadruplicate. The reaction is initiated by adding 20 μl of solution containing 2 μg of GST-PLC, 2 μM of cold ATP and 1 μCi of ^33P[ATP]. After incubation for 1 hour at 37° C., the reaction is stopped by adding 1 volume (100 μl) of 200 mM EDTA. After removing the incubation buffer, the wells are washed three times with 300 μl of PBS. The radioactivity is measured on a Wallac MicroBeta 1450.
The inhibition of the Tie2 activity is calculated and expressed as percentage inhibition compared to the control activity determined in the absence of compound.

The target in the next data set is T2, Aurora2 kinase (Homo sapiens, UniProt O14965).
T2 construct: A complete recombinant Aurora2 enzyme; His tag (N); made in house; host or cells: E. coli
T2 sequence (O14965 1-403): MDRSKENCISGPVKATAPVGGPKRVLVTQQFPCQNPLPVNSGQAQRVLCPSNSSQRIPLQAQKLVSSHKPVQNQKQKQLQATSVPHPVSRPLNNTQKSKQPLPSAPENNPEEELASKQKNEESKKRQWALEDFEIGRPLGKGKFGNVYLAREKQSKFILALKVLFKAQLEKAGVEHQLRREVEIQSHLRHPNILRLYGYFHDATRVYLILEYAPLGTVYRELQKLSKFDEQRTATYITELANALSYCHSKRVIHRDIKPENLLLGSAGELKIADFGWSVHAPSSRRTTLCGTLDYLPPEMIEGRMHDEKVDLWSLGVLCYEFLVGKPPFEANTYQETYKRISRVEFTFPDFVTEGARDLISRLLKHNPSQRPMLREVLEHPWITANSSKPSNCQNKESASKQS
The data set is described as follows: Aurora2 kinase radioactivity scintillation assay using nickel chelate (NuMA substrate). It is filed as biochemical. The following applies: 10 μM; read-out: Aurora2 % inhib at 10 μM. The procedure, abridged:
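His-tagged full-length Aurora2 (0.02 μM, E. coli) phosphorylating His-tagged NuMA C-terminal fragment (0.5 μM) with 1 μM ATP plus [33P]-ATP, 30 min at 37 °C, pH 7.5 Tris buffer with MgCl2. Nickel-chelate scintillation read; percent inhibition versus no-compound control.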

For another data set, the system named is c-Src protein. The data set is described as follows: Src kinase phosphorylation of biotinylated cdc2 substrate, fluorescence (DELFIA). The class given is biochemical, human. An outline of the steps: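 Recombinant human c-Src (SH3, SH2 and catalytic domains; baculovirus) phosphorylates biotinylated cdc2 substrate in 50 mM Tris, 10 mM MgCl2 with 10 μM ATP, 60 min at 30° C. Product captured on streptavidin and detected by Europium-anti-phosphotyrosine fluorescence (DELFIA). Reported as % inhibition of no-compound control.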

T1 sequence (Q02763 776-1124): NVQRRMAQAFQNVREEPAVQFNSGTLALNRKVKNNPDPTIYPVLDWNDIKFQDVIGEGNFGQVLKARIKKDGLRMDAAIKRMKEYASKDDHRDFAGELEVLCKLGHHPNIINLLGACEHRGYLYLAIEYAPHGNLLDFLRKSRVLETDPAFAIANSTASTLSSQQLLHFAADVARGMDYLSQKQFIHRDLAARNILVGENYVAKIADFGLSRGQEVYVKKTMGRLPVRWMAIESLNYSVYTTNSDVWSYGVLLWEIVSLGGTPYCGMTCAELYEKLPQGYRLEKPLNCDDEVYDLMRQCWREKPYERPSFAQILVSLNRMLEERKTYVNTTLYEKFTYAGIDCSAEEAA

One may read the melting point as the temperature, or range, at which the solid turns liquid. Turning to `CS(=O)(=O)c1ccccc1S(=O)(=O)Nc1ccc2[nH]nc(-c3ccccc3)c2c1` [Example 7, 2-Methylsulfonyl-N-(3-phenyl-1H-indazol-5-yl)benzenesulfonamide], the melting point turned out to be 223 °C. The inhibition at 10 µM on human Tie2 worked out at 86%. In addition, the inhibition at 10 µM on Aurora2 kinase is 97%. In addition, the “SRC % inhib at 10 μM” value in the data set on c-Src protein is given as 89%.
For `O=S(=O)(Nc1ccc2[nH]nc(-c3ccccc3)c2c1)c1cccc(F)c1` [Example 6, 3-Fluoro-N-(3-phenyl-1H-indazol-5-yl)benzenesulfonamide] the same measures were 200 °C, 74%, 95% and 55%.
The molecule `O=S(=O)(Nc1ccc2[nH]nc(-c3ccccc3)c2c1)c1ccc(Cl)c(Cl)c1` [Example 8, 3,4-Dichloro-N-(3-phenyl-1H-indazol-5-yl)benzenesulfonamide] showed a melting point of 216 °C. For the same molecule, the inhibition at 10 µM at human Tie2 was determined as 56%. In addition, the inhibition at 10 µM at Aurora2 kinase was determined as 59%.
